In patent US12466839B2, “Allosteric AKT inhibitors for use in the treatment of Hereditary Hemorrhagic Telangiectasia” (VADERIS THERAPEUTICS AG, priority 2020, dated 2025):

Assays:
Kv1.5 = Kv1.5 (Homo sapiens, UniProt P22460); assay: Cardiac ion channel profile; assay type: cell-based
p42/p44 (MAPK pathway) = assay: p42/p44 phosphorylation in primary lung endothelial cells (selectivity control); assay type: cell-based, mouse; settings: control for selectivity
Procedure: ECs were seeded in six-well plates and allowed to grow to 90% confluence. Cells were then washed with PBS and serum starved for six hours. […] Cells were washed with cold PBS and then lysed in RIPA Buffer (50 mM Tris-HCl pH 7.4, 150 mM NaCl, 1 mM Ethylene diamine tetra-acetic acid (EDTA), 1% Triton X-100, 0.1% Sodium Dodecyl Sulfate (SDS), 0.5% deoxycholate) containing protease and phosphatase inhibitors (PPC1010, Sigma-Aldrich).
Samples were boiled for 10 min and proteins were separated on 10% acrylamide gel and transferred onto nitrocellulose membrane before blocking with 5% BSA or 5% powdered milk/Tris-buffered saline/Tween and incubated with the following primary antibodies: rabbit anti-Phospho-Akt1 (Ser473) (44-621G, Invitrogen), rabbit anti-Akt1 (2938S, Cell Signaling), rabbit anti-PhosphoSmad1/5 (Ser463/465) (9516S, Cell Signaling), rabbit anti-Smad1 (6944S, Cell Signaling), mouse anti-Phospho-p44/42 MAPK (Thr202/Tyr204) (E10) (9106S, Cell signaling), rabbit p44/42 MAPK (Erk1/2) (9102S, Cell Signaling), goat anti-Endoglin (AF1097, R&D systems) and mouse anti-β-actin (A5441, Sigma-Aldrich). Detection was achieved using HRP anti-rabbit IgG or HRP anti-mouse IgG (W4011 or W4021 respectively, Promega) or HRP anti-goat IgG (HAF017, R&D systems) followed by scanning on BIO-RAD ChemiDoc imager. […]

S1P3 = target: T1, S1P3 (Homo sapiens, UniProt Q99500); assay: Millipore Drug Discovery Safety and Liability Panel; assay type: cell-based
T1 construct: Millipore

M3 = target: T2, M3 (Homo sapiens, UniProt P20309); assay: as above; assay type: cell-based
T2 construct: purchased Millipore

PRP = target: T3, PRP (Homo sapiens, UniProt P49683); assay: as above; assay type: cell-based
T3 construct: Millipore
T3 sequence (P49683 whole entry): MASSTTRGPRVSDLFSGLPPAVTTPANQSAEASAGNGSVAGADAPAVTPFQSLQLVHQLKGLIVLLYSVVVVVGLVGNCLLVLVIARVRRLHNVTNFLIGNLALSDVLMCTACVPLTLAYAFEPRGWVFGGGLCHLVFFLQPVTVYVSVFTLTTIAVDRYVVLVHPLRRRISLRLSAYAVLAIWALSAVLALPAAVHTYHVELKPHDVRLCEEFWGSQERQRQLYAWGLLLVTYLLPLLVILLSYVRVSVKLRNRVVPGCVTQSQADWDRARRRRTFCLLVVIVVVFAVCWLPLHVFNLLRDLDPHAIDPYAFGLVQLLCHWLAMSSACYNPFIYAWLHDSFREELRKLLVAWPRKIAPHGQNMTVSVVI

tumor xenograft = assay: Tumor xenograft model; assay type: in vivo
minK (Homo sapiens) = assay: Cardiac ion channel profile; assay type: cell-based
C5aR = target: T4, C5aR (Homo sapiens, UniProt P21730); assay: Millipore Drug Discovery Safety and Liability Panel; assay type: cell-based
T4 construct: purchased Millipore
T4 sequence (P21730 whole entry): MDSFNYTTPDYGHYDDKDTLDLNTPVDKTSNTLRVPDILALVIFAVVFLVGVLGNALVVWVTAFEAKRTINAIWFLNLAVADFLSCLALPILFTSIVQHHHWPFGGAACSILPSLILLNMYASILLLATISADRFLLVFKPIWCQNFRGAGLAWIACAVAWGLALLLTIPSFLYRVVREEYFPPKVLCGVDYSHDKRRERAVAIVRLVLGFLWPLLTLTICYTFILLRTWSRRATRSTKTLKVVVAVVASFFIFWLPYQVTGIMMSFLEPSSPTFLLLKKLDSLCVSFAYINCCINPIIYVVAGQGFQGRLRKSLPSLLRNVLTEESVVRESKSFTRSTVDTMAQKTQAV

LPA1 = target: T5, LPA1 (Homo sapiens, UniProt Q92633); assay: as above; assay type: cell-based
T5 construct: purchased Millipore
T5 sequence (Q92633 whole entry, species assumed): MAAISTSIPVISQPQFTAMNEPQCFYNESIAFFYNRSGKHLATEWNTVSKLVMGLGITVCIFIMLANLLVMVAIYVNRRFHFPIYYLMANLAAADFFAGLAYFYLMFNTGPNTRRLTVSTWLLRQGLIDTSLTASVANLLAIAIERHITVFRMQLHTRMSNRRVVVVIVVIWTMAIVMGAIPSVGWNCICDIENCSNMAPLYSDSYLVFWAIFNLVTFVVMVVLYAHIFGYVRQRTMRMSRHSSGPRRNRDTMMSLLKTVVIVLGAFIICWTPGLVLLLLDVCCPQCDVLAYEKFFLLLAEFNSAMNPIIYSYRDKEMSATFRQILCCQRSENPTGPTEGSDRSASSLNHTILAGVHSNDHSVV

A1 = target: T6, A1 (Homo sapiens, UniProt P30542); assay: as above; assay type: cell-based
T6 construct: purchased Millipore
T6 sequence (P30542 whole entry): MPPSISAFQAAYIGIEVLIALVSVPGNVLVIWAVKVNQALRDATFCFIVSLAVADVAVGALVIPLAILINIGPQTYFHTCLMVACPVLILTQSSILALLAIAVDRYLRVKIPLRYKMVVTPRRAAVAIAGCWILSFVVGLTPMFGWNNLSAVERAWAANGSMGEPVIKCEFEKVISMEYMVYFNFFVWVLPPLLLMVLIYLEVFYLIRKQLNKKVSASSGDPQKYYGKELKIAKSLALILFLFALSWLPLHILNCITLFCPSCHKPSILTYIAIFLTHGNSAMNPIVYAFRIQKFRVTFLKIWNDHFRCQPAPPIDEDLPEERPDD

TP = target: T7, TP (Homo sapiens, UniProt P21731); assay: as above; assay type: cell-based
T7 construct: Millipore
T7 sequence (P21731 whole entry): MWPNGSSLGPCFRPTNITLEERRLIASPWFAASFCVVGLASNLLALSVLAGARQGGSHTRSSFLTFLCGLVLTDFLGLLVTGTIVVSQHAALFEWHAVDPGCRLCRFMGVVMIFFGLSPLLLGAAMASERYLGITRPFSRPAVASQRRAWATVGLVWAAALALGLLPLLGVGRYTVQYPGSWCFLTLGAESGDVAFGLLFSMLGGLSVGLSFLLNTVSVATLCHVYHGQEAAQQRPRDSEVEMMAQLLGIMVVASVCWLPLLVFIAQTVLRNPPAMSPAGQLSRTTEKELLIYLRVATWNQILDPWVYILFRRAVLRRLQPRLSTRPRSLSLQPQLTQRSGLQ

5-HT1A = target: T8, 5-HT1A (Homo sapiens, UniProt P08908); assay: as above; assay type: cell-based
T8 construct: purchased Millipore
T8 sequence (P08908 whole entry, species assumed): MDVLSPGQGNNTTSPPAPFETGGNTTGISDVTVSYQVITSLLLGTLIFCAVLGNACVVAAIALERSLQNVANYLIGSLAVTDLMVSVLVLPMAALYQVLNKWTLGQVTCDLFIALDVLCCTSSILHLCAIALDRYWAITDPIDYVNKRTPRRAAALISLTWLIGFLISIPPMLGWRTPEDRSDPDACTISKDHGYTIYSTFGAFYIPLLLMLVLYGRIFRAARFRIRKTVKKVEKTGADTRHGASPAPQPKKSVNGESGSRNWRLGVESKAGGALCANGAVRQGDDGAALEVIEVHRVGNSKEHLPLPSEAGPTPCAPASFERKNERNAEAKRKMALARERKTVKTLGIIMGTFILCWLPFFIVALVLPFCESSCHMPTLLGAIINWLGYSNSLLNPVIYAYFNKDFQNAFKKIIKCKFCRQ

HCN4 = HCN4 (Homo sapiens, UniProt Q9Y3Q4); assay: Cardiac ion channel profile; assay type: cell-based
GAL1 = target: T9, GAL1 (Homo sapiens, UniProt P47211); assay: Millipore Drug Discovery Safety and Liability Panel; assay type: cell-based
T9 construct: purchased Millipore

SST4 = target: T10, SST4 (Homo sapiens, UniProt P31391); assay: as above; assay type: cell-based
T10 construct: Millipore
T10 sequence (P31391 whole entry, species assumed): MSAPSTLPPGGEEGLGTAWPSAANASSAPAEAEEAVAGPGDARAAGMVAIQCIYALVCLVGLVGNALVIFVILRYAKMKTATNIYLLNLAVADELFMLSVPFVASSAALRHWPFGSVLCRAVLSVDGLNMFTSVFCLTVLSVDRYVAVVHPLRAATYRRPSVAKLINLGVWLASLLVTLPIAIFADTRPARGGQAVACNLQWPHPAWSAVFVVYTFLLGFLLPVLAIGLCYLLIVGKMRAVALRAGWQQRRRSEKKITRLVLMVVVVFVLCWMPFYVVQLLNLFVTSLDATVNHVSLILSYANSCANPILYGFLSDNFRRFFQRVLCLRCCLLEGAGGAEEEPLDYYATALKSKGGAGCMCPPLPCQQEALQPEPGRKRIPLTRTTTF

Y2 = target: T11, Y2 (Homo sapiens, UniProt P49146); assay: as above; assay type: cell-based
T11 construct: Millipore
T11 sequence (P49146 whole entry): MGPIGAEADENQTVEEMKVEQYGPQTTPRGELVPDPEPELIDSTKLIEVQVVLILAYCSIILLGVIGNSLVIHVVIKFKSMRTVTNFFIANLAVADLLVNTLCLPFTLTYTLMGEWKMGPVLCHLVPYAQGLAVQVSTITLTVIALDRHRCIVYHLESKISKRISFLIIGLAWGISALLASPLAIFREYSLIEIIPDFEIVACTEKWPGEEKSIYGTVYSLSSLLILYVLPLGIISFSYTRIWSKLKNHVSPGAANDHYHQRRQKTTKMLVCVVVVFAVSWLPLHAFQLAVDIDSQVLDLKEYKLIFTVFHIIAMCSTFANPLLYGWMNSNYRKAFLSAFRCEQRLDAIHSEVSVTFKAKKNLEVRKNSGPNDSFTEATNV

V1A = target: T12, V1A (Homo sapiens, UniProt P37288); assay: as above; assay type: cell-based
T12 construct: Millipore

CysLT1 = target: T13, CysLT1 (Homo sapiens, UniProt Q9Y271); assay: as above; assay type: cell-based
T13 construct: purchased Millipore
T13 sequence (Q9Y271 whole entry): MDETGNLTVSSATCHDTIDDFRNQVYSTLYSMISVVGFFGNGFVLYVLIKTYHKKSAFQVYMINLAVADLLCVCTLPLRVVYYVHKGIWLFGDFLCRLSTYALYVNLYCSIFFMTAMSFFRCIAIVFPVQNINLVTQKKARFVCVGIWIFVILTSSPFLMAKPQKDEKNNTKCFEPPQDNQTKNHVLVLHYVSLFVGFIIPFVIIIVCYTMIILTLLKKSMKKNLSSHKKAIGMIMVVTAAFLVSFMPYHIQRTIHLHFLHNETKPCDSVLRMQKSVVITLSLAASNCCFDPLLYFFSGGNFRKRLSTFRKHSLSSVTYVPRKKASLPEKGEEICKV

ADRB1 = target: T14, ADRB1 (Homo sapiens, UniProt P08588); assay: as above; assay type: cell-based
T14 construct: purchased Millipore
T14 sequence (P08588 whole entry): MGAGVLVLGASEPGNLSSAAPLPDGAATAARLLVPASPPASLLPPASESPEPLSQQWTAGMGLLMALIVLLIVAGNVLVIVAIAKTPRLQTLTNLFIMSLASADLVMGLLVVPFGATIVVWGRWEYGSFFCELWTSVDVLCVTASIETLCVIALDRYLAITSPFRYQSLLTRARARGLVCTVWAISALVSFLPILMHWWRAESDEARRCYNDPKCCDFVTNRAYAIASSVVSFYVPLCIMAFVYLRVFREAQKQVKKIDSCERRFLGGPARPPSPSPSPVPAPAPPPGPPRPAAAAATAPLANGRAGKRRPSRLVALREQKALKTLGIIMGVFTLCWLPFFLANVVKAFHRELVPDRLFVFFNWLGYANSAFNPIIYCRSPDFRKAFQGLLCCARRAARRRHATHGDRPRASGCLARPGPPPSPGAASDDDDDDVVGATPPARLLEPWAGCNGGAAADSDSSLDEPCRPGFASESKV

D1 = target: T15, D1 (Homo sapiens, UniProt P21728); assay: as above; assay type: cell-based
T15 construct: purchased Millipore
T15 sequence (P21728 whole entry): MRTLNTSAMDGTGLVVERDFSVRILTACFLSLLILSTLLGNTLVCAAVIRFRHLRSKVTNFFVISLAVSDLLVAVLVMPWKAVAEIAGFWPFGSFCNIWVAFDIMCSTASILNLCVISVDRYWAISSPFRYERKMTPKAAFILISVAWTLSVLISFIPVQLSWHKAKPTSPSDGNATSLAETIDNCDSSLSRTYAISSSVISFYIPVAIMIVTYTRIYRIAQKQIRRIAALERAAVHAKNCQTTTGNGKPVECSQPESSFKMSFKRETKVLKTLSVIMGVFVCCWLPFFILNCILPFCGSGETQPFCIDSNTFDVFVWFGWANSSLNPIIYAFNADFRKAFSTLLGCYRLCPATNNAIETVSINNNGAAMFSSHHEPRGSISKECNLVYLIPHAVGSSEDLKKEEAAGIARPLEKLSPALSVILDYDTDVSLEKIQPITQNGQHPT

GnRH = target: T16, GnRH (Homo sapiens, UniProt P30968); assay: as above; assay type: cell-based
T16 construct: purchased Millipore

MC5 = target: T17, MC5 (Homo sapiens, UniProt P33032); assay: as above; assay type: cell-based
T17 construct: purchased Millipore
T17 sequence (P33032 whole entry): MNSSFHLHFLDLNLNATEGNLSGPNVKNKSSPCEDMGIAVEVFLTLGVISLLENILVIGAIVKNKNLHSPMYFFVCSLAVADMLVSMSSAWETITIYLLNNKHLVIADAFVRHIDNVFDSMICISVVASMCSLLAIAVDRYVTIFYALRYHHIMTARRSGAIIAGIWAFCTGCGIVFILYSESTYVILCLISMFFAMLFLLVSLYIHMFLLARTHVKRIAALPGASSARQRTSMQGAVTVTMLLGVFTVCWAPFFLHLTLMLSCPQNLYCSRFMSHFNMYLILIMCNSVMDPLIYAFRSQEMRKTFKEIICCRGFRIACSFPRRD

OT = target: T18, OT (Homo sapiens, UniProt P30559); assay: as above; assay type: cell-based
T18 construct: Millipore
T18 sequence (P30559 whole entry): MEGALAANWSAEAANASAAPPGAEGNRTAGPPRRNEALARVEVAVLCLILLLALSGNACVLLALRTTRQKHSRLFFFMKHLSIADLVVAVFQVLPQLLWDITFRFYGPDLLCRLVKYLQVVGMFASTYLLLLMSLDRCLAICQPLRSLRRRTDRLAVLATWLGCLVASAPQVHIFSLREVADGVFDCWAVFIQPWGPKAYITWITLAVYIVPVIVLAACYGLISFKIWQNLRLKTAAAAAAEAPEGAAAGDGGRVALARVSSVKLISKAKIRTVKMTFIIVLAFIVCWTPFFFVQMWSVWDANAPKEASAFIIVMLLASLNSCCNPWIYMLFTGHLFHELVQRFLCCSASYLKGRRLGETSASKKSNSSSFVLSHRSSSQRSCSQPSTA

[1] = read-out: ANTAGONIST mean % inhibition
[2] = read-out: AGONIST mean % increase in activity

CCN1C(=O)COc2nc(-c3ccc(C4(N)CC(O)C4)cc3)c(-c3ccccc3)cc21.O=C(O)C(O)C(O)C(=O)O [VAD044, 6-(4-(1-amino-3-hydroxycyclobutyl)phenyl)-1-ethyl-7-phenyl-1H-pyrido[2,3-b][1,4]oxazin-2(3H)-one L-tartrate]
inhibition at 10 µM (Kv1.5): < 25%
impact on the MAPK pathway (p42/p44 phosphorylation) (p42/p44 (MAPK pathway)): no impact on the MAPK pathway
activation at 10 µM (S1P3; S1P3, 10 μM, read-out: AGONIST mean % increase in activity): -0.4%
inhibition at 10 µM (S1P3; [1]): -0.6%
activation at 10 µM (M3; M3, 10 μM, read-out: AGONIST mean % increase in activity): -0.5%
inhibition at 10 µM (M3; [1]): 5.3%
activation at 10 µM (PRP; [2]): -0.5%
inhibition at 10 µM (PRP; [1]): 23.2%
minimal effective dose in vivo (tumor xenograft): 30 mg/kg
inhibition at 10 µM (minK (Homo sapiens)): < 25%
activation at 10 µM (C5aR; C5aR, 10 μM, read-out: AGONIST mean % increase in activity): -1.2%
inhibition at 10 µM (C5aR; [1]): 1.5%
activation at 10 µM (LPA1; [2]): -1.3%
inhibition at 10 µM (LPA1; [1]): 57.4%
activation at 10 µM (A1; A1, 10 μM, read-out: AGONIST mean % increase in activity): 0%
inhibition at 10 µM (A1; [1]): 7.7%
activation at 10 µM (TP; TP, 10 μM, read-out: AGONIST mean % increase in activity): -0.5%
inhibition at 10 µM (TP; [1]): 0%
activation at 10 µM (5-HT1A; [2]): 2.1%
inhibition at 10 µM (5-HT1A; [1]): 30.6%
inhibition at 10 µM (HCN4): < 25%
activation at 10 µM (GAL1; GAL1, 10 μM, read-out: AGONIST mean % increase in activity): 0.3%
inhibition at 10 µM (GAL1; [1]): 3.4%
activation at 10 µM (SST4; SST4, 10 μM, read-out: AGONIST mean % increase in activity): -0.8%
inhibition at 10 µM (SST4; [1]): 16.5%
activation at 10 µM (Y2; Y2, 10 μM, read-out: AGONIST mean % increase in activity): -2.2%
inhibition at 10 µM (Y2; [1]): -5.7%
activation at 10 µM (V1A; V1A, 10 μM, read-out: AGONIST mean % increase in activity): -1.5%
inhibition at 10 µM (V1A; [1]): 2.5%
activation at 10 µM (CysLT1; CysLT1, 10 μM, read-out: AGONIST mean % increase in activity): -0.8%
inhibition at 10 µM (CysLT1; [1]): 1.5%
activation at 10 µM (ADRB1; ADRB1, 10 μM, read-out: AGONIST mean % increase in activity): -0.1%
inhibition at 10 µM (ADRB1; [1]): 4.2%
activation at 10 µM (D1; D1, 10 μM, read-out: AGONIST mean % increase in activity): 1.5%
inhibition at 10 µM (D1; [1]): 18.7%
activation at 10 µM (GnRH; GnRH, 10 μM, read-out: AGONIST mean % increase in activity): -0.6%
inhibition at 10 µM (GnRH; [1]): 4%
activation at 10 µM (MC5; MC5, 10 μM, read-out: AGONIST mean % increase in activity): -0.2%
inhibition at 10 µM (MC5; [1]): 8.4%
activation at 10 µM (OT; [2]): -1.2%
inhibition at 10 µM (OT; [1]): 29.5%
